Test results published in patent US20260014173A1, “Nutritional composition for stroke” (N.V. Nutricia, priority 2022, published 2026).

What was measured:
[1] = test system: PC12 pheochromocytoma cells; assay: Neurite outgrowth in in vitro PC12 neuronal cell model (NGF, no hypoxia), Examples 5 and 6; assay type: cell-based; conditions: total concentration of 20 μM choline from chol-CI, PC or both, control set at 100%
Description: The effects of nutrient supplementation on neurite outgrowth parameters in PC12 pheochromocytoma cells was also assessed.
PC12 pheochromocytoma cells were grown in DMEM (Gibco), supplemented with 10% fetal bovine serum (FBS), penicillin (100 units/ml), and streptomycin (100 μg/ml) (Gibco), under a humidified atmosphere with 95% air and 5% CO2 at 37° C. Cells were seeded in collagen (0.01 mg/ml) coated 96 well plates at a density of 5000 cells/well and after 24 hours supplemented with medium containing 20 ng/ml nerve growth factor (NGF) with or without coenzyme Q10 (1 μM), vitamin D3 ((0.25 μM), vitamin B2 (0.5 μM), DHA (6.7 μM), a source of choline (20 μM phosphatidylcholine, PC) or a mixture thereof.
In the PC12 experiments the cells were not exposed to hypoxia.
Docosahexaenoic acid (DHA) was resuspended in absolute ethanol and diluted 5 times in fetal bovine serum. All compounds were purchased from Sigma (Zwijndrecht, The Netherlands).
Supplementation of cells was performed in 6-fold in 96 wells plates. These conditions were compared to non-supplemented cells. After supplementation for 48 hours with these combinations, cells were stained using Calcein-AM stain (2 ng/μl) and the nuclei were counterstained using Hoechst stain (0.6 μg/ml), in 100 μl culture medium per well and incubated for 20 min at 37° C. Subsequently, FITC and DAPI images (9 images per well for 96 wells plate) were taken using an ImageXpress high content imaging system. Neurite length was quantified using the neurite outgrowth module in MetaXpress.
Nutrients were supplemented alone (100% chol-CI or 100% PC) and in a ratio of 60:40 and 40:60 of chol-CI to PC. Supplementation of cells was performed in 6-fold in 96 wells plates at a total concentration of 20 μM choline, derived from chol-CI, from PC, or from both. The neurite outgrowth in these conditions were compared to non-supplemented PC12 cells.

[2] = test system: Mouse primary cortical neurons (E14); assay: Neurite outgrowth after hypoxia (oxygen glucose deprivation), cortical neuronal cultures, Example 3; assay type: cell-based; conditions: OGD 3.5 hrs; vitamin D3 30 nM, co-enzyme Q10 3 μM, vitamin B2 30 nM, alone or combined; supplemented immediately after OGD for 24 hrs; control set at 100%
Description: Mouse primary cortical neurons (E14) were seeded onto 96-well plates coated with poly-D-lysine. Cells (20.000 cells/well) were cultured in modified Neurobasal medium (containing B27, Pen/Strep, and GlutaMAX). Cell cultures were incubated at 37° C. in 5% CO2 and medium was replaced every 2-3 days. At day 2 of in vitro culturing, cells underwent oxygen glucose deprivation (OGD) for 3.5 hrs. In order to induce glucose deprivation, modified Neurobasal medium was replaced with an equivalent volume of HBSS. For hypoxia, cells were placed in a humidity-controlled incubator (Whitley H35 Hypoxystation) set to 0.5% O2, 94.5% N2 and 5% CO2 at 37° C. for 3.5 hrs. After the hypoxic incubation period, HBSS was removed and replaced with modified Neurobasal medium, and plates returned to normoxic conditions and incubated at 37° C. in 5% CO2 for an additional 24 hrs. […] Nutrients were supplemented either alone, in combination of two, or in combination of three, starting immediately after the OGD and lasting for another 24 hrs. Every condition was tested in triplicate. […] At the end of the experiment, plates were fixed PFA for 5 min at room temperature. Then, cells were permeabilized and blocked using PBS containing 10% normal goat serum, 0.1% sodium azide and 0.2% Triton X-100. Cells were stained overnight with a monoclonal anti-beta-tubulin III antibody (Sigma Aldrich, T8578). Next, cells were stained with the secondary antibody Alexa Fluor 488 Goat anti-Mouse IgG (H+L) (Invitrogen A11001 Fisher, 10256302). Nuclei were stained with Hoechst 33342 (Thermofisher, H3570). Images were taken at a magnification of 20× in 12 fields of view using In Cell Analyser 2000.

| Molecule | neurite outgrowth compared to unsupplemented control PC12 cells [1] | neurite outgrowth after hypoxia relative to control [2] | neurite outgrowth compared to unsupplemented control PC12 cells ([1]; listed as PC) |
| --- | --- | --- | --- |
| C[N+](C)(C)CCO.[Cl-] [100% chol-CI, choline chloride] | improved neurite outgrowth | – | – |
| COC1=C(OC)C(=O)C(C/C=C(\C)CC/C=C(\C)CC/C=C(\C)CC/C=C(\C)CC/C=C(\C)CC/C=C(\C)CC/C=C(\C)CC/C=C(\C)CC/C=C(\C)CCC=C(C)C)=C(C)C1=O [co-enzyme Q10, 2,3 dimethoxy-5 methyl-6-decaprenyl benzoquinone] | – | did not affect neurite outgrowth | – |
| Cc1cc2nc3c(=O)[nH]c(=O)nc-3n(C[C@H](O)[C@H](O)[C@H](O)CO)c2cc1C [vitamin B2, riboflavin] | – | did not affect neurite outgrowth | – |
| C=C1CC[C@H](O)C/C1=C/C=C1\CCC[C@]2(C)[C@@H]([C@H](C)CCCC(C)C)CC[C@@H]12 [vitamin D3, cholecalciferol] | – | did not affect neurite outgrowth | – |
| phosphatidylcholine [100% PC] | increases neurite outgrowth slightly more than supplementation with 100% chol-CI | – | slightly better effect on neurite outgrowth than choline chloride |
